Assay results: US6274715A, “Tricyclic erythromycin derivatives” (priority 1997, dated 2001)
≈ marks a conversion by molar mass, not a printed value.

Columns and labels:
Assay type in all cases: cell-based
[1] = system: STREPTOCOCCUS PYOGENES EES61; experiment: In vitro antibacterial activity, MIC, BHI agar dilution; conditions: S. pyogenes EES61, unit assumed
EN[…] ATCC 8043 = experiment: as above; conditions: E. faecium ATCC 8043, unit assumed
Outline: (§1)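 BHI agar dilution, 12 plates; inoculum 1:100 (1:10 slow-growing strains), Steers replicator; 35-37° C, 20-24 h. MIC = lowest conc. with no growth/slight haze/sparse colonies vs growth control, visual read. Erythromycin A reference plate.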

M[…] ATCC 9341 = experiment: as above; conditions: M. luteus ATCC 9341, unit assumed
Outline: as §1

STR[…] 508 = experiment: as above; conditions: S. agalactiae CMX 508, unit assumed
Outline: as §1

M[…] ATCC 4698 = experiment: as above; conditions: M. luteus ATCC 4698, unit assumed
Outline: as §1

[2] = system: PSEUDOMONAS AERUGINOSA 5007; experiment: as above; conditions: P. aeruginosa 5007, unit assumed
[3] = system: STAPHYLOCOCCUS AUREUS ATCC 6538P; experiment: as above; conditions: S. aureus ATCC 6538P, 35-37° C., 20 to 24 hours, unit assumed
[4] = system: PSEUDOMONAS AERUGINOSA BMH10; experiment: as above; conditions: P. aeruginosa BMH10, unit assumed
PSEUDOMONAS CEPACIA 296I = experiment: as above; conditions: P. cepacia 296I, unit assumed
ESCHERICHIA COLI JUHL = conditions: E. coli JUHL; BHI agar; unit assumed
[5] = system: STAPHYLOCOCCUS AUREUS CMX 642A; experiment: In vitro antibacterial activity, MIC, BHI agar dilution; conditions: S. aureus CMX 642A, unit assumed
[6] = system: STREPTOCOCCUS PYOGENES PIU 2548; experiment: as above; conditions: S. pyogenes PIU 2548, unit assumed
ESCHERICHIA COLI DC-2 = experiment: as above; conditions: E. coli DC-2, unit assumed
[7] = system: STREPTOCOCCUS BOVIS A-5169; experiment: as above; conditions: S. bovis A-5169, unit assumed
[8] = system: KLEBSIELLA PNEUMONIAE ATCC 8045; experiment: as above; conditions: K. pneumoniae ATCC 8045, unit assumed
[9] = system: STAPHYLOCOCCUS AUREUS 1775; experiment: as above; conditions: S. aureus 1775, unit assumed
[10] = system: ACINETOBACTER CALCOACETICUS CMX 669; experiment: as above; conditions: A. calcoaceticus CMX 669, unit assumed
CANDIDA ALBICANS CCH 442 = experiment: as above; conditions: C. albicans CCH 442, unit assumed
[11] = system: PSEUDOMONAS AERUGINOSA K799/WT; experiment: as above; conditions: P. aeruginosa K799/WT, unit assumed
[12] = system: STAPHYLOCOCCUS AUREUS NCTC10649M; experiment: as above; conditions: S. aureus NCTC10649M, unit assumed
ESCHERICHIA COLI H560 = experiment: as above; conditions: E. coli H560, unit assumed
[13] = system: PSEUDOMONAS AERUGINOSA DPHD-2862; experiment: as above; conditions: P. aeruginosa DPHD-2862, unit assumed
[14] = system: ENTEROBACTER AEROGENES ATCC 13048; experiment: as above; conditions: E. aerogenes ATCC 13048, unit assumed
[15] = system: MYCOBACTERIUM SMEGMATIS ATCC 114; experiment: as above; conditions: M. smegmatis ATCC 114, unit assumed
[16] = system: STAPHYLOCOCCUS AUREUS A5177; experiment: as above; conditions: S. aureus A5177, unit assumed
ESCHERICHIA COLI KNK 437 = conditions: E. coli KNK 437; BHI agar; unit assumed
[17] = system: PSEUDOMONAS AERUGINOSA DPHD-5263; experiment: In vitro antibacterial activity, MIC, BHI agar dilution; conditions: P. aeruginosa DPHD-5263, unit assumed
[18] = system: STAPHYLOCOCCUS AUREUS CMX 553; experiment: as above; conditions: S. aureus CMX 553, unit assumed
H. Influenza Dill AMP R = experiment: In vitro antibacterial activity against H. Influenza Dill AMP R, MIC; conditions: separate assay, unit assumed
Protocol: Representative compounds of the present invention were assayed in vitro for antibacterial activity as follows: Twelve petri dishes containing successive aqueous dilutions of the test compound mixed with 10 mL of sterilized Brain Heart Infusion (BHI) agar (Difco 0418-01-5) were prepared. Each plate was inoculated with 1:100 (or 1:10 for slow-growing strains, such as Micrococcus and Streptococcus) dilutions of up to 32 different microorganisms, using a Steers replicator block. The inoculated plates were incubated at 35-37° C. for 20 to 24 hours. In addition, a control plate, using BHI agar containing no test compound, was prepared and incubated at the beginning and end of each test.
After incubation, each plate was visually inspected. The minimum inhibitory concentration (MIC) was defmed as the lowest concentration of drug yielding no growth, a slight haze, or sparsely isolated colonies on the inoculum spot as compared to the growth control.
In a separate assay representative compounds of the invention were assayed in vitro for antibacterial activity against the H. Influenza Dill AMP R strain, according to the protocol described above.

[19] = system: PSEUDOMONAS AERUGINOSA K799/61; experiment: In vitro antibacterial activity, MIC, BHI agar dilution; conditions: P. aeruginosa K799/61, unit assumed
[20] = system: STAPHYLOCOCCUS EPIDERMIDIS 3519; conditions: S. epidermidis 3519; BHI agar; unit assumed
[21] = system: STAPHYLOCOCCUS AUREUS A-5278; experiment: In vitro antibacterial activity, MIC, BHI agar dilution; conditions: S. aureus A-5278, unit assumed
[22] = system: PROVIDENCIA STUARTII CMX 640; conditions: P. stuartii CMX 640; BHI agar; unit assumed
[23] = system: STREPTOCOCCUS PYOGENES 930; experiment: In vitro antibacterial activity, MIC, BHI agar dilution; conditions: S. pyogenes 930, unit assumed
ESCHERICHIA COLI SS = experiment: as above; conditions: E. coli SS, unit assumed

Structure (SMILES)	MIC [1] [µg/mL]	MIC (EN[…] ATCC 8043) [µg/mL]	MIC (M[…] ATCC 9341) [µg/mL]	MIC (STR[…] 508) [µg/mL]	MIC (M[…] ATCC 4698) [µg/mL]	MIC [2] [µg/mL]	MIC [4] [µg/mL]	MIC (PSEUDOMONAS CEPACIA 296I) [µg/mL]	MIC (ESCHERICHIA COLI JUHL) [µg/mL]	MIC [5] [µg/mL]	MIC (ESCHERICHIA COLI DC-2) [µg/mL]	MIC [7] [µg/mL]	MIC [8] [µg/mL]	MIC [9] [µg/mL]	MIC (CANDIDA ALBICANS CCH 442) [µg/mL]	MIC [11] [µg/mL]	MIC [12] [µg/mL]	MIC (ESCHERICHIA COLI H560) [µg/mL]	MIC [13] [µg/mL]	MIC [14] [µg/mL]	also measured
CC[C@H]1OC(=O)[C@H](C)C(=O)[C@H](C)[C@@H](O[C@@H]2O[C@H](C)C[C@H](N(C)C)[C@H]2O)[C@](C)(OC)C[C@@H](C)C2=NC[C@H](CCCc3ccccc3)N3C(=O)O[C@@]1(C)[C@H]3[C@H]2C [Example 40]	0.02 (≈ 0.0265 µM)	0.05 (≈ 0.0661 µM)	0.05 (≈ 0.0661 µM)	0.05 (≈ 0.0661 µM)	0.39 (≈ 0.516 µM)	> 100	> 100	> 100	> 100	0.78 (≈ 1.03 µM)	100 (≈ 132 µM)	0.02 (≈ 0.0265 µM)	> 100	> 100	> 100	> 100	0.78 (≈ 1.03 µM)	25 (≈ 33.1 µM)	> 100	> 100	MIC [3]: 0.78 µg/mL (≈ 1.03 µM); MIC [6]: 0.2 µg/mL (≈ 0.265 µM); MIC [10]: 50 µg/mL (≈ 66.1 µM); MIC [15]: 0.39 µg/mL (≈ 0.516 µM); MIC [16]: 0.78 µg/mL (≈ 1.03 µM); MIC (ESCHERICHIA COLI KNK 437): > 100 µg/mL; MIC [17]: > 100 µg/mL; MIC [18]: 0.78 µg/mL (≈ 1.03 µM); MIC (H. Influenza Dill AMP R): 4 µg/mL (≈ 5.29 µM); MIC [19]: 0.78 µg/mL (≈ 1.03 µM); MIC [20]: 0.39 µg/mL (≈ 0.516 µM); MIC [21]: > 100 µg/mL; MIC [22]: > 100 µg/mL; MIC [23]: 100 µg/mL (≈ 132 µM); MIC (ESCHERICHIA COLI SS): 0.78 µg/mL (≈ 1.03 µM)
CC[C@H]1OC(=O)[C@H](C)C(=O)[C@H](C)[C@@H](O[C@@H]2O[C@H](C)C[C@H](N(C)C)[C@H]2O)[C@](C)(OC)C[C@@H](C)C2=NC3CN(C(C)=O)CC3N3C(=O)O[C@@]1(C)[C@H]3[C@H]2C (stereo partly drawn) [Example 125]	0.1 (≈ 0.139 µM)	1.56 (≈ 2.16 µM)	0.78 (≈ 1.08 µM)	0.39 (≈ 0.541 µM)	6.2 (≈ 8.6 µM)	> 100	> 100	> 100	> 100	12.5 (≈ 17.3 µM)	> 100	0.2 (≈ 0.277 µM)	> 100	> 100	> 100	> 100	6.2 (≈ 8.6 µM)	> 100	> 100	> 100	MIC [10]: 100 µg/mL (≈ 139 µM); MIC [15]: 50 µg/mL (≈ 69.4 µM); MIC [16]: 6.2 µg/mL (≈ 8.6 µM); MIC (ESCHERICHIA COLI KNK 437): > 100 µg/mL; MIC [17]: > 100 µg/mL; MIC [18]: 6.2 µg/mL (≈ 8.6 µM); MIC (H. Influenza Dill AMP R): 128 µg/mL (≈ 178 µM); MIC [19]: 6.2 µg/mL (≈ 8.6 µM); MIC [20]: 6.2 µg/mL (≈ 8.6 µM); MIC [21]: > 100 µg/mL; MIC [22]: > 100 µg/mL; MIC [23]: > 100 µg/mL; MIC (ESCHERICHIA COLI SS): 0.78 µg/mL (≈ 1.08 µM)
CC[C@H]1OC(=O)[C@H](C)C(=O)[C@H](C)[C@@H](O[C@@H]2O[C@H](C)C[C@H](N(C)C)[C@H]2O)[C@](C)(OC)C[C@@H](C)C2=NCC(COC(=O)c3ccccc3)N3C(=O)O[C@@]1(C)[C@H]3[C@H]2C (stereo partly drawn) [Example 139]	0.01 (≈ 0.013 µM)	0.02 (≈ 0.0259 µM)	0.05 (≈ 0.0648 µM)	0.02 (≈ 0.0259 µM)	0.2 (≈ 0.259 µM)	> 100	> 100	25 (≈ 32.4 µM)	25 (≈ 32.4 µM)	0.1 (≈ 0.13 µM)	25 (≈ 32.4 µM)	≤ 0.005	100 (≈ 130 µM)	> 100	> 100	100 (≈ 130 µM)	0.1 (≈ 0.13 µM)	25 (≈ 32.4 µM)	100 (≈ 130 µM)	100 (≈ 130 µM)	MIC [3]: 0.1 µg/mL (≈ 0.13 µM); MIC [6]: 0.39 µg/mL (≈ 0.505 µM); MIC [15]: 0.78 µg/mL (≈ 1.01 µM); MIC [16]: 0.1 µg/mL (≈ 0.13 µM); MIC (ESCHERICHIA COLI KNK 437): 50 µg/mL (≈ 64.8 µM); MIC [17]: > 100 µg/mL; MIC [18]: 0.1 µg/mL (≈ 0.13 µM); MIC (H. Influenza Dill AMP R): 2 µg/mL (≈ 2.59 µM); MIC [19]: 0.39 µg/mL (≈ 0.505 µM); MIC [20]: 0.1 µg/mL (≈ 0.13 µM); MIC [21]: > 100 µg/mL; MIC [22]: > 100 µg/mL; MIC [23]: 25 µg/mL (≈ 32.4 µM); MIC (ESCHERICHIA COLI SS): 0.39 µg/mL (≈ 0.505 µM)
